This passage reports IC50, Activity and inhibition results from ChEMBL document CHEMBL5550153, “Semisynthesis and biological evaluation of novel honokiol thioethers against colon cancer cells HCT116 via inhibiting the transcription and expression of YAP protein” (Bioorg Med Chem, 2024).

Experiment [1] concerns HCT-116. Briefly: Antiproliferative activity against human HCT-116 cells assessed as inhibition of cell growth incubated for 48 hrs by MTT assay. The conditions noted are these: HCT-116, 48 h. It is filed as functional, cell-based. (Formazan colour is commonly taken as a measure of viable cells.)
In another experiment the test system is MGC-803. Briefly: Antiproliferative activity against human MGC-803 cells assessed as inhibition of cell growth incubated for 48 hrs by MTT assay. It is filed as functional, cell-based. The settings on record: MGC-803, 48 h.
For a further experiment, the system named is KYSE-450. Briefly: Antiproliferative activity against human KYSE-450 cells assessed as inhibition of cell growth incubated for 48 hrs by MTT assay. The class given is functional, cell-based. The settings on record: KYSE-450, 48 h.
For experiment [2], the system named is HCT-116. Briefly: Downregulation of TAZ protein expression in human HCT-116 cells at 2 to 6 micromol/L measured after 48 hrs by Western blot analysis. The class given is functional, cell-based. The settings on record: dose 2-6 µmol/L. (In western blotting, separated proteins are transferred to a membrane and probed.)
In experiment [3] the test system is HCT-116. Briefly: Downregulation of YAP gene transcription in human HCT-116 cells at 6 micromol/L measured after 48 hrs by RT-qPCR analysis. It is filed as functional, cell-based. The settings on record: dose 6.0 µmol/L. In general terms: Quantitative PCR measures a nucleic acid by following its amplification.
The subject of experiment [4] is HCT-116. Briefly: Antiproliferative activity against human HCT-116 cells assessed as inhibition of cell growth at 2 to 6 micromol/L by MTT assay. The class given is functional, cell-based. The conditions noted are these: dose 2-6 µmol/L, time 0-48 hrs, TDE = time-dependent effect.
Experiment [5] concerns HCT-116. Briefly: Downregulation of YAP protein expression in human HCT-116 cells at 2 to 6 micromol/L measured after 48 hrs by Western blot analysis. The settings on record: dose 2-6 µmol/L. The class given is functional, cell-based.
Experiment [6] deals with HCT-116. Briefly: Activation of Hippo signaling pathway in human HCT-116 cells assessed as increase in YAP phosphorylation level at 2 to 6 micromol/L incubated for 48 hrs by Western blotting analysis. It is filed as cell-based. The settings on record: dose 2-6 µmol/L.
Experiment [7] has as its system HCT-116. Briefly: Induction of cell death in human HCT-116 cells at 2 to 6 micromol/L measured after 48 hrs by Annexin V-FITC/PI staining based flow cytometry analysis. The class given is functional. The conditions noted are these: dose 2-6 µmol/L.
In experiment [8] the test system is HCT-116. Briefly: Induction of cell cycle arrest in human HCT-116 cells assessed as increase in cells at G1 phase at 2 to 6 micromol/L measured after 48 hrs by PI staining based flow cytometry analysis relative to control. The conditions noted are these: dose 2-6 µmol/L, at 2 to 6 µM. It is filed as functional.
Experiment [9] concerns HCT-116. Briefly: Induction of cell cycle arrest in human HCT-116 cells assessed as downregulation of CDK4 level at 2 to 6 micromol/L measured after 48 hrs by Western blot analysis. The class given is functional, cell-based. The conditions noted are these: dose 2-6 µmol/L.
For experiment [10], the system named is HCT-116. Briefly: Antiproliferative activity against human HCT-116 cells assessed as inhibition of cell growth measured upto 48 hrs by MTT assay. The class given is functional, cell-based. The settings on record: dose 2-6 µmol/L.
The test system of experiment [11] is HCT-116. Briefly: Inhibition of colony formation in human HCT-116 cells at 2 to 8 micromol/L measured daily for 7 days by crystal violet staining based analysis. The conditions noted are these: dose 2-8 µmol/L, time 7.0 day. The class given is functional, cell-based.

Each structure is given as a SMILES string. Activity calls are given as the source filed them. The calls are words filed in the database; no cut-off is given here. Bounds are passed on as bounds.

The IC50 is the concentration that inhibits the measured activity by half. Consider `C=CCc1ccc(O)c(-c2ccc3c(c2)C[C@@H](CSc2nnc(-c4cccc(F)c4)o2)O3)c1`, for which the IC50 in the experiment on HCT-116 [1] is 29.4 µM; in the experiment with MGC-803, 23.8 µM; in the experiment with KYSE-450 it was over 50 µM.
For `C=CCc1ccc(O)c(-c2ccc3c(c2)C[C@@H](CSc2nnc(-c4ccc(Cl)cc4Cl)o2)O3)c1`, in that order: over 50 µM, 21.5 µM and over 50 µM.
For `C=CCc1ccc(O)c(-c2ccc3c(c2)C[C@@H](CSc2nnc(-c4ccccc4)o2)O3)c1`, the figures for the half-maximal inhibitory concentration (IC50) in the experiment with HCT-116 [1], with MGC-803 and with KYSE-450 were 46.7 µM, 27.5 µM and over 50 µM, respectively.
For `C=CCc1ccc(O)c(-c2ccc3c(c2)C[C@@H](CSc2nnc(-c4ccccc4F)o2)O3)c1`, in that order: 20.1 µM, 16.2 µM and 38.7 µM.
On the same counts, the results for `C=CCc1ccc(O)c(-c2ccc3c(c2)C[C@@H](CSc2nnc(-c4ccc(Br)cc4)o2)O3)c1` are 52.2 µM, 44.6 µM and over 50 µM.
For the compound `C=CCc1ccc(O)c(-c2ccc(O)c(CC=C)c2)c1` [HONOKIOL], the IC50 in the experiment on HCT-116 [1] is 17.2 µM; with MGC-803 it was 11.8 µM; in the experiment with KYSE-450, 32.4 µM.
For `C=CCc1ccc(O)c(-c2ccc3c(c2)C[C@@H](CSc2nnc(-c4ccccc4Br)o2)O3)c1`, in that order: over 50 µM, over 50 µM and over 50 µM.
`C=CCc1ccc(O)c(-c2ccc3c(c2)C[C@@H](CSc2nnc(-c4ccc(F)cc4Cl)o2)O3)c1`: the figures for the IC50 with HCT-116 [1], in the experiment with MGC-803 and in the experiment with KYSE-450 were over 50 µM, 20.4 µM and over 50 µM, respectively.
For `C=CCc1ccc(O)c(-c2ccc3c(c2)C[C@@H](CSc2nnc(-c4ccc([N+](=O)[O-])cc4)o2)O3)c1`, the result with HCT-116 [2], in the experiment with HCT-116 [3], in the experiment on HCT-116 [5], in the experiment on HCT-116 [7] and with HCT-116 [9] was Active. Moreover, the figures for the Activity result in the experiment with HCT-116 [4], with HCT-116 [8] and in the experiment on HCT-116 [10] were “Tde”, over 20% and “Dose-Dependent Effect”, respectively. The outcome with HCT-116 [6] was inactive. Besides, the figures for the IC50 with HCT-116 [1], with MGC-803 and with KYSE-450 were 6.1 µM, over 50 µM and over 50 µM, respectively. For the same compound, the inhibition entry with HCT-116 [11] is “Active”.
As for `O=c1[nH]cc(F)c(=O)[nH]1` [FLUOROURACIL], the figures for the IC50 in the experiment on HCT-116 [1], in the experiment on MGC-803 and with KYSE-450 were 9.63 µM, 3.88 µM and 32.6 µM, respectively.
In the case of `C=CCc1ccc(O)c(-c2ccc3c(c2)C[C@@H](CSc2nnc(-c4ccccc4Cl)o2)O3)c1`, the concentration for half-maximal inhibition (IC50) with HCT-116 [1], in the experiment with MGC-803 and with KYSE-450 was over 50 µM in each case.
As for `C=CCc1ccc(O)c(-c2ccc3c(c2)C[C@@H](CSc2nnc(-c4cccnc4)o2)O3)c1`, the values for the IC50 with HCT-116 [1], in the experiment on MGC-803 and in the experiment on KYSE-450 were 12.3 µM, 8.63 µM and over 50 µM, respectively.
On the same counts, the results for `C=CCc1ccc(O)c(-c2ccc3c(c2)C[C@@H](CSc2nnc(-c4ccncc4)o2)O3)c1` are over 50 µM, 40.6 µM and over 50 µM.
For `C=CCc1ccc(O)c(-c2ccc3c(c2)C[C@@H](CSc2nnc(-c4ccc(C#N)cc4)o2)O3)c1`, in that order: over 50 µM, over 50 µM and over 50 µM.
For the compound `C=CCc1ccc(O)c(-c2ccc3c(c2)C[C@@H](CSc2nnc(-c4cccc(Cl)c4)o2)O3)c1`, the IC50 was 43.4 µM in the experiment with HCT-116 [1], 24.6 µM in the experiment with MGC-803 and over 50 µM with KYSE-450.
Turning to `C=CCc1ccc(O)c(-c2ccc3c(c2)C[C@@H](CSc2nnc(-c4ccccc4OC)o2)O3)c1`, the half-inhibitory concentration (IC50) with HCT-116 [1], with MGC-803 and with KYSE-450 was over 50 µM in each case.
Take `C=CCc1ccc(O)c(-c2ccc3c(c2)C[C@@H](CSc2nnc(-c4cccc(C)c4)o2)O3)c1`: the figures for the IC50 in the experiment with HCT-116 [1], in the experiment on MGC-803 and in the experiment with KYSE-450 were over 50 µM, 20.5 µM and over 50 µM, respectively.
For `C=CCc1ccc(O)c(-c2ccc3c(c2)C[C@@H](CSc2nnc(-c4cccc(OC)c4)o2)O3)c1`, the IC50 in the experiment with HCT-116 [1], in the experiment with MGC-803 and with KYSE-450 was over 50 µM in each case.
As to `C=CCc1ccc(O)c(-c2ccc3c(c2)C[C@@H](CSc2nnc(-c4ccccc4C)o2)O3)c1`, the IC50 in the experiment with HCT-116 [1] was 47.7 µM; with MGC-803, 25.7 µM; with KYSE-450 it was over 50 µM.
For `C=CCc1ccc(O)c(-c2ccc3c(c2)C[C@@H](CSc2nnc(-c4ccc(Cl)cc4)o2)O3)c1`, in that order: 37.9 µM, 27 µM and over 50 µM.
On to `C=CCc1ccc(O)c(-c2ccc3c(c2)C[C@@H](CSc2nnc(-c4ccc(OC)cc4)o2)O3)c1`, for which the values for the IC50 in the experiment on HCT-116 [1], with MGC-803 and in the experiment on KYSE-450 were over 50 µM, 39.7 µM and over 50 µM, respectively.
Regarding `C=CCc1ccc(O)c(-c2ccc3c(c2)C[C@@H](CSc2nnc(-c4ccc(C)cc4)o2)O3)c1`, the IC50 was 59.6 µM in the experiment with HCT-116 [1], 29.5 µM with MGC-803 and over 50 µM in the experiment with KYSE-450.
Take `C=CCc1ccc(O)c(-c2ccc3c(c2)C[C@@H](CSc2nnc(-c4ccc(F)cc4)o2)O3)c1`: the IC50 is 27.4 µM in the experiment on HCT-116 [1], 25.1 µM with MGC-803 and over 50 µM in the experiment with KYSE-450.
On the same counts, the results for `C=CCc1ccc(O)c(-c2ccc3c(c2)C[C@@H](CSc2nnc(-c4cccc(Br)c4)o2)O3)c1` are 57.6 µM, 20.4 µM and over 50 µM.
